Assay results published in patent US20090023735A1, “Sulphonamide Derivatives” (priority 2005, published 2009).
Where a name gives a salt, the structure may show the parent alone. Values belong to the compound of their own block, whether it stands above or below them.

Experiments:
α2β1 integrin = biological target: T1, α2β1 integrin (Homo sapiens, UniProt P17301); assay: CHO-α2β1 cell adhesion on type I collagen; format: cell-based; conditions: CHO cells expressing wild type α2 integrin on collagen type I coated wells, 2 h
T1 construct: expressed in transfected cells; host or cells: CHO cell clone
T1 sequence (P17301 30-1181): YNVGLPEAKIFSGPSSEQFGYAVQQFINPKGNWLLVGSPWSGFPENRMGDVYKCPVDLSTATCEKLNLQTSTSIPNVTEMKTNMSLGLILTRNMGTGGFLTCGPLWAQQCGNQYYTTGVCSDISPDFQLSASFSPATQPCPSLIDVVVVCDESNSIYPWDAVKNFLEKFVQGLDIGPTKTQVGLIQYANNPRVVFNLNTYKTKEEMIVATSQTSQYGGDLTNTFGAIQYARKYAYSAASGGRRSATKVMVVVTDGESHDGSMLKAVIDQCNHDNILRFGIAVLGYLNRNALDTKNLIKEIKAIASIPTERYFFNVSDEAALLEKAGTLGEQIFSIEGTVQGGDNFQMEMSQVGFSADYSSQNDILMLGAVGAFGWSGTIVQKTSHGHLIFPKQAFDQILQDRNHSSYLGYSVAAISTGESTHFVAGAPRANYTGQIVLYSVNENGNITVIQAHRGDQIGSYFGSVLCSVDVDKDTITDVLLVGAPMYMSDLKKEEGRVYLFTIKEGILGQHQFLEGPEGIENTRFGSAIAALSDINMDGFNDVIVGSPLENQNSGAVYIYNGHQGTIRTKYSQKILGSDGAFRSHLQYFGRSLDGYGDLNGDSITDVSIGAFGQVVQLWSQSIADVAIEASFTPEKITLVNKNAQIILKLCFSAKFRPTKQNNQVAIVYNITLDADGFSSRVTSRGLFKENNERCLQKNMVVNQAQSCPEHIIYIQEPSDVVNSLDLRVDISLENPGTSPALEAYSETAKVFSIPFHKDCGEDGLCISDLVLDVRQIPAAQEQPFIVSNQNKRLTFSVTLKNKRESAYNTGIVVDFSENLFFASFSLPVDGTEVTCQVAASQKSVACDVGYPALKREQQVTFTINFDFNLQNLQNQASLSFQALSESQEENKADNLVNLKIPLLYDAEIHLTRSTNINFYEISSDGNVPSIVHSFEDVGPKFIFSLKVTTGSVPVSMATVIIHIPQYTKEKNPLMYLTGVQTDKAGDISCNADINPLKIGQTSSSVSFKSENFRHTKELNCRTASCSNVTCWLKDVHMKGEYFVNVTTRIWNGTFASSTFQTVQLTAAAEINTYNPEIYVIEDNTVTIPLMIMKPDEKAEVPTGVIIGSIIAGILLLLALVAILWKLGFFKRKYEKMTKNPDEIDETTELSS
Protocol: Chinese Hamster Ovary (CHO) cell clone expressing wild type α2 integrin was used in cell adhesion assay. Cells were suspended in serum free medium containing 0.1 mg/ml cycloheximide (Sigma) and the compounds were preincubated with the cells prior to transfer to the wells. Cells (150000/well) were allowed to attach on collagen type I coated wells (in the presence and absence of inhibitor compounds) for 2 h at +37° C. and after that non-adherent cells were removed. Fresh serum free medium was added and the living cells were detected using a cell viability kit (Roche) according to the manufacturer's protocol.

[1] = test system: Prostate cancer cells (PC-3); assay: Cell invasion assay: invasion of PC-3 cells through Matrigel; conditions: Homo sapiens, PC-3, 72 h, read-out: EC50 in cell invasion (μM)
Protocol: Prostate cancer cells (PC-3) expressing α2β1 endogenously were used to test the in vitro anticancer potential of the inhibitors of the present invention.
Inserts were stored at −20° C. Before the experiments inserts were allowed to adjust to the room temperature. 500 μl of serum free media (Ham's F12K medium, 2 mM L-glutamine, 1.5 g/l sodium bicarbonate) was added into the inserts and allowed to rehydrate at 37° C. in cell incubator for two hours. The remaining media was aspirated. PC-3 cells were detached, pelleted and suspended into serum free media (50000 cells/500 μl). 300 μl of cell suspension was added into the insert in the absence (control) or presence of the inhibitor according to the present invention. Inserts were placed on the 24-well plates; each well containing 700 μl of cell culture media with 3% of fetal bovine serum as chemo-attractant. Cells were allowed to invade for 72 hours at 37° C. in cell incubator. Inserts were washed with 700 μl PBS, and fixed with 4% paraformaldehyde for 10 minutes. Paraformaldehyde was aspirated and cells were washed with 700 μl of PBS and inserts were stained by incubation with hematoxylin for 1 minute. The stain was removed by washing the inserts with 700 μl of PBS. Inserts were allowed to dry. Fixed invaded cells were calculated under the microscope. Invasion % was calculated as a comparison to the control.

[2] = test system: platelet aggregation in whole blood; conditions: PFA-100, collagen plus Epinephrin membrane, compared to control (DMSO), FIG. 1
Protocol: The PFA-100 is a high shear-inducing device that simulates primary haemostasis after injury of a small vessel. The system comprises a test-cartridge containing a biologically active membrane coated with collagen plus Epinephrin. An anticoaculated whole blood sample was run through a capillary under a constant vacuum. […] The time required to obtain full occlusion of the aperture was designated as the “closure time”. Each compound was added to the whole blood sample and the closure time was measured with PFA-100.
Blood was collected from a donor via venipuncture into evacuated blood collection tubes containing 3.2% buffered sodium sitrate as anticoagulant. Blood was aliquoted into 15 mL tubes and treated with either inhibitory compounds or controls (DMSO). Samples were kept at room temperature with rotation for 10 minutes and after that the closure time of the blood was measured.
Acquisitions resulting in a closure time exceeding the range of measurement of the instrument (>300 seconds) were assigned a value of 300 seconds. Mean and standard deviations were calculated for each treatment. Student's t-test was applied to the resultant data.

Compound: Cn1cccc1C(=O)Nc1ccc(NS(=O)(=O)c2cccc(-c3ccc(F)cc3)c2)cc1 [Compound 442, 1-methyl-1H-pyrrole-2-carboxylic acid [4-(4′-fluoro-bi-phenyl-3-sulfonylamino)-phenyl]-amide]
inhibition at 50 µM (α2β1 integrin): 21%

Compound: CN(c1ccc(NC(=O)N2CCNC2=O)cc1)S(=O)(=O)c1cccc(-c2ccc(F)cc2)c1 [Compound 430, 2-oxo-imidazolidine-1-carboxylic acid {4-[(4′-fluoro-bi-phenyl-3-sulfonyl)-methyl-amino]-phenyl)-amide]
EC50 [1]: 12 µM
inhibition at 50 µM (α2β1 integrin): 53%

Compound: CN(C)CCN(c1ccc(N(C)C)cc1)S(=O)(=O)c1cccc(-c2ccc(F)cc2)c1 [Compound 354, 4′-fluoro-biphenyl-3-sulfonic acid (2-dimethylamino-ethyl)-(4-dimethylamino-phenyl)-amide]
inhibition at 50 µM (α2β1 integrin): 78%

Compound: CN(C)c1ccc(N(CCn2ccnc2)S(=O)(=O)c2cccc(-c3ccc(F)cc3)c2)cc1 [Compound 358, 4′-fluoro-biphenyl-3-sulfonic acid (4-dimethylamino-phenyl)-(2-imidazol-1-yl-ethyl)-amide]
inhibition at 50 µM (α2β1 integrin): 71%

Compound: O=C(c1ccccc1)c1ccc(NS(=O)(=O)c2cccc(-c3ccc(F)cc3)c2)cc1 [Compound 434, 4′-fluoro-biphenyl-3-sulfonic acid (4-benzoyl-phenyl)-amide sodium salt]
closure time of the blood [2]: increase the closure time
inhibition at 50 µM (α2β1 integrin; CHO): 78%

Compound: CN(C)c1ccc(N(CCO)S(=O)(=O)c2cccc(-c3ccc(F)cc3)c2)cc1 [Compound 359, 4′-fluoro-biphenyl-3-sulfonic acid (4-dimethylamino-phenyl)-(2-hydroxy-ethyl)-amide]
inhibition at 50 µM (α2β1 integrin): 42%

Compound: O=C(c1ccccc1)c1ccc(NS(=O)(=O)c2cccc(-c3ccc(F)cc3)c2)cc1 [Compound 384, 4′-fluoro-biphenyl-3-sulfonic acid (4-benzoyl-phenyl)-amide]
inhibition at 50 µM (α2β1 integrin): 65%

Compound: COCCN(c1ccc(N(C)C)cc1)S(=O)(=O)c1cccc(-c2ccc(F)cc2)c1 [Compound 353, 4′-fluoro-biphenyl-3-sulfonic acid (4-dimethylamino-phenyl)-(2-methoxy-ethyl)-amide]
inhibition at 50 µM (α2β1 integrin): 11%

Compound: O=C(c1ccc(F)cc1)c1ccc(NS(=O)(=O)c2cccc(-c3ccc(F)cc3)c2)cc1 [Compound 458, 4′-fluoro-biphenyl-3-sulfonic acid [4-((4-fluorophenyl)-4-carbonyl)-phenyl]-amide]
inhibition at 50 µM (α2β1 integrin): 66%

Compound: CN(C)c1ccc(N(CCN2CCOCC2)S(=O)(=O)c2cccc(-c3ccc(F)cc3)c2)cc1 [Compound 355, 4′-fluoro-biphenyl-3-sulfonic acid (4-dimethylamino-phenyl)-(2-morpholin-4-yl-ethyl)-amide]
inhibition at 50 µM (α2β1 integrin): 18%

The next lines start with the values.

inhibition at 50 µM (α2β1 integrin): 22%
Compound: O=S(=O)(Nc1ccc(-c2cnco2)cc1)c1cccc(-c2ccc(F)cc2)c1 [Compound 378, 4′-fluoro-biphenyl-3-sulfonic acid (4-(1,3-oxazol-5-yl)-phenyl)-amide]

EC50 [1]: 1 µM
inhibition at 50 µM (α2β1 integrin): 72%
Compound: O=C(c1ccccc1)c1cccc(NS(=O)(=O)c2cccc(-c3ccc(F)cc3)c2)c1 [Compound 432, 4′-fluoro-biphenyl-3-sulfonic acid (3-benzoyl-phenyl)-amide]

inhibition at 50 µM (α2β1 integrin): 13%
Compound: Cc1cc(NC(=O)c2ccc(NS(=O)(=O)c3cccc(-c4ccc(F)cc4)c3)cc2)no1 [Compound 456, 4-(4′-fluoro-biphenyl-3-sulfonylamino)-N-(5-methyl-isoxazol-3-yl)-benzamide]

inhibition at 50 µM (α2β1 integrin): 56%
Compound: O=S(=O)(Nc1cccc(-c2ccc(F)cc2)c1)c1ccc(Cl)cc1Cl [Compound 403, 2,4-cichlorophenylsulfonic acid (3-(4-fluorophenyl)phenyl)-amide]

inhibition at 50 µM (α2β1 integrin): 26%
Compound: CC(=O)c1ccc(NS(=O)(=O)c2cccc(-c3ccc(F)cc3)c2)cc1 [Compound 383, 4′-fluoro-biphenyl-3-sulfonic acid (4-acetyl-phenyl)-amide]

EC50 [1]: 8.3 µM
inhibition at 50 µM (α2β1 integrin): 59%
Compound: O=[N+]([O-])c1ccc(NS(=O)(=O)c2cccc(-c3ccc(F)cc3)c2)cc1 [Compound 440, 4′-fluoro-biphenyl-3-sulfonic acid (4-nitro-phenyl)-amide]

EC50 [1]: 27 µM
inhibition at 50 µM (α2β1 integrin): 58%
Compound: N#Cc1ccc(NS(=O)(=O)c2cccc(-c3ccc(F)cc3)c2)cc1 [Compound 448, 4′-fluoro-biphenyl-3-sulfonic acid (4-cyano-phenyl)-amide]
